Laboratory results from ChEMBL document CHEMBL3430912, “GSK Tres Cantos Anti-Kinetoplastid Screening (TCAKS) Data”.
pIC50: −log10 of the molar value.

Columns and labels:
[1] = GSK_TCAKS: pIC50 HepG2 human cell line viability assay using luminiscence. […] Seeding density was checked to ensure that new mono-layers were not more than 50% confluent at the time of harvesting. Cell suspension was added to 500 mL of the same medium at a final density of 1.2 * 10^5 cells/mL. This cell suspension was dispensed (25 uL, 3000 cells per well) into 384-well clear-bottom plates using a Multidrop Combi dispenser. Prior to addition of the cell suspension, the screening compounds (250 nL) were pre-dispensed into the plates with an Echo liquid handler. Plates were incubated for 48 h at 37C, 5% CO2. After incubation, plates equilibrated at room temperature for 30 min before proceeding to develop the luminescent signal. The signal developer, CellTiter-Glo Reagent, was allowed to equilibrate at room temperature for 30 min and added to the plates (25uL per well) using a Multidrop Combi dispenser. Plates were left for 10 min at room temperature for stabilization and then read using a ViewLux.; format: toxicity, cell-based
[2] = target: Sterol 14-alpha demethylase (Trypanosoma cruzi (strain CL Brener), UniProt Q7Z1V1); test: GSK_TCAKS: pIC50 CYP51 from Trypanosoma cruzi.; format: functional
Leishmania donovani [3] = test: (§1) GSK_TCAKS: pIC50 Leishmania donovani Imaging: THP-1 Host Macrophages. Assay plates (384-well) were prepared by adding 250nL of compound to each well. For single shot assay, the final compound concentration was 5 uM. […] Automated image analysis was performed with a script developed on Acapella High Content Imaging and Analysis Software (PerkinElmer). Output: THP-1 cell count were reported for each well.; format: functional, organism-based, Homo sapiens
[4] = tested on: Trypanosoma brucei brucei; test: GSK_TCAKS: pIC50 Trypanosoma brucei viability assay using fluorescence intensity. Assay plates (1536-well) were prepared by dispensing 25nL of compound solution per well using an Echo acoustic dispenser (Labcyte).; format: functional, organism-based; conditions: Lister 427, 2 h
Trypanosoma cruzi [5] = test: GSK_TCAKS: pIC50 Trypanosoma cruzi Imaging: Amastigotes/Cell. […] Cells were then washed once with PBS before infection. T. cruzi trypomastigotes, collected at days 5 to 8 after infection from LLC-MK2 parasite infected cultures, were allowed to swim out for 4h at 37C from a centrifuged pellet (2,500 rpm/10 min/room temperature). Trypomastigotes were then collected and counted in a CASY Cell Counter. Trypomastigotes, in supplemented DMEM, were added to H9c2 cultures in a multiplicity of infection of 1 and incubated for 18 h. Cells were washed once with PBS before incubation of the infected H9c2 monolayer with trypsin (Life-Technologies) to detach cells from the flask. Cells were counted in a CASY Cell Counter using a 150 um capillary and their density set at 5 * 10^4 cells per mL in supplemented assay DMEM. Infected H9c2 were dispensed into 384-well poly-lysine coated assay plates at 50uL per well using a Multidrop Combi dispenser. After seeding them, the plates were incubated at 37C, 5% CO2 for 72h. Cultures were then fixed and stained by addition of 50 uL of a solution containing 8% formaldehyde and 4 uM DRAQ5 DNA dye (BioStatus, UK) per well. […] Five images were collected per well for reliable statistical analysis. Automated image analysis was performed with a script developed on Acapella High Content Imaging and Analysis Software (PerkinElmer). Output: number of amastigotes per cell as infection level measurement.; format: functional, organism-based, Rattus norvegicus; conditions: H9c2, 4 h
Leishmania donovani [6] = test: GSK_TCAKS: pIC50 Leishmania donovani viability assay using fluorescence intensity. Assay plates (1536-well) were prepared by adding 30nL per well of compound. For single shot assay, the final compound concentration was 5uM. […] Briefly, eGFP LdBOB axenic amastigotes were harvested, fixed and counted in a CASY cell counter (Roche-Applied Science). A final concentration of 1.5 * 10^5 cells per well were prepared in amastigote media containing 500 U/mL penicillin/streptomycin (Invitrogen) and 6uL was dispensed to each experimental well using a Multidrop Combi dispenser (Thermo Scientific). 6uL of assay media was dispensed to control columns used as reference for 100% compound response. Following incubation for 72 h at 37C, 5% CO2, 2 uL of resazurin was added to each well at a final concentration of 0.5 mM in phosphate buffered saline (PBS) with IGEPAL (Sigma-Aldrich), 0.05% (v/v).; format: functional, organism-based
[7] = tested on: Trypanosoma brucei brucei; test: GSK_TCAKS: pIC50 Trypanosoma brucei viability assay using luminiscence. Assay plates (1536-well) were prepared. T. brucei cultures were harvested and counted in a CASY cell counter. A parasite suspension was prepared at a final concentration of 5 * 10^4 cells/mL in complete HMI9 medium and 6uL was dispensed to all wells containing compounds using a Multidrop Combi dispenser. 6uL of HMI9 media with 0.4% DMSO were dispensed to control columns. Plates were incubated for 24 h at 37C, 5% CO2 then tempered for 10 min at room temperature. ATP content was quantified by adding 4 uL of CellTiter-Glo Reagent (Promega) according to the manufacturer's instructions. Luminescence was measured using a ViewLux.; format: functional, organism-based; conditions: Lister 427, CASY
Trypanosoma cruzi [8] = test: (§2) GSK_TCAKS: pIC50 Trypanosoma cruzi Imaging: Infected Cells. […] Cells were then washed once with PBS before infection. T. cruzi trypomastigotes, collected at days 5 to 8 after infection from LLC-MK2 parasite infected cultures, were allowed to swim out for 4h at 37C from a centrifuged pellet (2,500 rpm/10 min/room temperature). Trypomastigotes were then collected and counted in a CASY Cell Counter. Trypomastigotes, in supplemented DMEM, were added to H9c2 cultures in a multiplicity of infection of 1 and incubated for 18 h. Cells were washed once with PBS before incubation of the infected H9c2 monolayer with trypsin (Life-Technologies) to detach cells from the flask. Cells were counted in a CASY Cell Counter using a 150 um capillary and their density set at 5 * 10^4 cells per mL in supplemented assay DMEM. Infected H9c2 were dispensed into 384-well poly-lysine coated assay plates at 50uL per well using a Multidrop Combi dispenser. After seeding them, the plates were incubated at 37C, 5% CO2 for 72h. Cultures were then fixed and stained by addition of 50 uL of a solution containing 8% formaldehyde and 4 uM DRAQ5 DNA dye (BioStatus, UK) per well. […] Five images were collected per well for reliable statistical analysis. Automated image analysis was performed with a script developed on Acapella High Content Imaging and Analysis Software (PerkinElmer). Output: percentage of infected cells per well as a second infection marker.; format: functional, organism-based, Rattus norvegicus; conditions: H9c2, 4 h
Leishmania donovani [9] = test: as §1, with “Infected” for “THP-1 Host”, “Percent of infected macrophage cells” for “THP-1 cell count”; format: functional, organism-based, Homo sapiens; conditions: THP-1
Trypanosoma cruzi [10] = test: as §2, with “H2C9” for “Trypanosoma cruzi”, “H9c2 Host Cardiomyocytes.” for “Infected Cells.”, “Number” for “percentage”, “H9c2 Host Cardiomyocytes nuclei to determine drug-related cytotoxicity.” for “infected cells per well as a second infection marker.”; format: functional, organism-based, Rattus norvegicus; conditions: H9c2, 4 h
Leishmania donovani [11] = test: as §1, with “Amastigotes/Macrophages.” for “THP-1 Host Macrophages.”, “Average number of amastigotes per macrophage” for “THP-1”, “cell” for “cell count”; format: functional, organism-based, Homo sapiens; conditions: THP-1
Trypanosoma cruzi [12] = test: GSK_TCAKS: pIC50 Trypanosoma cruzi viability assay using beta-GAL activity. This assay was run at single shot at 5uM compound concentration per well. The biological reagents consisted of NIH-3T3 host cells and trypomastigotes parasitic cells; both cell types were set to a 3.3 * 10^5 cells/mL dilution in assay DMEM by means of a CASY cell counter device using a 60um capillary. 6 uL of the mixture were dispensed per well (about 1 * 10^3 host-cells and 1 * 10^3 parasites) with a Multidrop Combi dispenser. […] In all wells, the percentage of DMSO never exceeded 0.5%. Plates incubated for four days at 37C, 5% CO2. The substrate used for the assay fluorescence intensity (FLINT) readout was resorufin-beta-D-galactopiranoside (Sigma-Aldrich) at 5uM per well. It was diluted in PBS supplemented with the soft detergent Igepal (Fluka).; format: functional, organism-based, Mus musculus; conditions: Tulahuen, NIH3T3

Sterol 14-alpha demethylase, sequence (Q7Z1V1 whole entry): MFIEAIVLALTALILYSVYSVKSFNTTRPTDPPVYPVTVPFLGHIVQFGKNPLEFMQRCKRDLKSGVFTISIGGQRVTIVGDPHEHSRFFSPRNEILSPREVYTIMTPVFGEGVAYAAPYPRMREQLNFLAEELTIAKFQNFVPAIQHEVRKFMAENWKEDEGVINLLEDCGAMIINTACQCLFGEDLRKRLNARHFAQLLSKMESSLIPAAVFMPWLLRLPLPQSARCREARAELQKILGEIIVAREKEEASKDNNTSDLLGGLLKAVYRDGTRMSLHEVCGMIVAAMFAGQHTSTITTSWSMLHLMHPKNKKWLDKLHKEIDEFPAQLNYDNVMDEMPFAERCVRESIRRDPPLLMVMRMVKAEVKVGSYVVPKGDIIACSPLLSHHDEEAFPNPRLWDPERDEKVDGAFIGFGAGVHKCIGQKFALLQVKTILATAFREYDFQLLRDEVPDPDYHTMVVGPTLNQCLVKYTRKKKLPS

| Structure (SMILES) | IC50 at 48 h [1] | pIC50 [2] | pIC50 (Leishmania donovani [3]) | pIC50 [4] | pIC50 (Trypanosoma cruzi [5]) | pIC50 (Leishmania donovani [6]) | pIC50 [7] | pIC50 (Trypanosoma cruzi [8]) | pIC50 (Leishmania donovani [9]) | pIC50 (Trypanosoma cruzi [10]) | pIC50 (Leishmania donovani [11]) | pIC50 (Trypanosoma cruzi [12]) |
| --- | --- | --- | --- | --- | --- | --- | --- | --- | --- | --- | --- | --- |
| O=c1ccc2ccc(F)c3c2n1C[C@H]3CN1CCN(CC(O)c2cc3c(cn2)OCS3)CC1 (some centres undefined) | > 100 µM | < 4.00 | < 4.30 | 6.70 | 6.50 | 4.70 | 6.40 | 6.20 | < 4.30 | < 4.30 | < 4.30 | 6.15 |
| COc1ccc(-c2cnc(C)o2)cc1S(=O)(=O)Nc1ccc(C)cc1C | > 100 µM | 4.60 | < 4.30 | 5.20 | 5.50 | 5.40 | 4.50 | 5.50 | 5.50 | < 4.30 | 5.60 | 5.55 |
| O=C(O)[C@H]1C[C@@H]1c1ccc(-c2ccc(CN(CCc3ccccn3)C(=O)C3CCC3)cc2)cc1 | > 100 µM | 4.70 | < 4.30 | 6.20 | 4.50 | 4.60 | 6.10 | 4.50 | < 4.30 | < 4.30 | < 4.30 | < 4.30 |
| COc1ccc([N+](=O)[O-])cc1NC(=O)c1cc(Cl)ccc1O | 10 µM | < 4.00 | 5.00 | 4.60 | 5.10 | 5.10 | 4.60 | 4.80 | 5.70 | < 4.30 | 5.80 | 4.50 |
| O=C(Cc1ccccc1)Nc1ccccc1C(=O)Nc1nccs1 | > 100 µM | < 4.00 | < 4.30 | 6.60 | < 4.30 | < 4.30 | 6.60 | < 4.30 | < 4.30 | < 4.30 | < 4.30 | 4.40 |
| COc1ccc(C(=O)Nc2c(C)nn(COc3cccc(C(F)(F)F)c3)c2C)cc1 | > 100 µM | 4.90 | 4.50 | 6.10 | 4.60 | < 4.30 | 6.10 | 4.40 | < 4.30 | < 4.30 | < 4.30 | 4.60 |
| COc1ccc2ncc(=O)n(CCN3CCC(NCc4ccc(-c5cccs5)cc4)CC3)c2n1 | 12.6 µM | 4.60 | 5.00 | 5.50 | 6.80 | 5.80 | 5.20 | 5.80 | 5.50 | 5.10 | 5.90 | 5.70 |
| CS(=O)(=O)c1ccccc1C(=O)N(Cc1ccccc1)c1ccccc1 | > 100 µM | 4.70 | < 4.30 | 6.40 | 4.40 | 4.80 | 6.20 | < 4.30 | < 4.30 | < 4.30 | 4.80 | 4.30 |
| O=C(CSc1nnc2ccc(-c3ccc(F)cc3)nn12)N1CCCCC1 | > 100 µM | < 4.00 | 5.20 | 6.40 | 6.00 | < 4.30 | 6.30 | 5.70 | < 4.30 | < 4.30 | < 4.30 | 5.60 |
| Cc1ccccc1CNc1cc(C2CC2)nc(-c2nccn2C)n1 | 15.8 µM | 4.80 | 5.00 | 5.60 | 6.10 | 5.80 | 5.80 | 6.10 | 6.20 | 6.10 | 6.20 | 6.10 |
| COc1ccc(OC)c2c(=O)c(Cc3ccccc3)c(C)[nH]c12 | > 100 µM | < 4.00 | < 4.30 | < 4.40 | 6.90 | 6.40 | < 4.40 | 6.30 | 5.40 | < 4.30 | 5.60 | 6.65 |
| Cc1ccnc(NS(=O)(=O)c2ccc(NC(=O)c3ccc([N+](=O)[O-])s3)cc2)n1 | 15.8 µM | 4.20 | 5.00 | 6.70 | 5.20 | 5.40 | 6.40 | 5.00 | 5.00 | 5.30 | 5.30 | 5.70 |
| CN(Cc1nc2ccc(C(=O)NCC3CCCCC3)cc2[nH]1)C1CCCc2cccnc21 (centres undefined) | 15.8 µM | 4.40 | 5.20 | 6.10 | 6.50 | 5.50 | 6.50 | 6.20 | 6.30 | 5.30 | 6.40 | 6.30 |
| NC(=O)c1cc(F)ccc1Nc1nc(N[C@H]2CC[C@H](O)CC2)ncc1Br | 50.1 µM | 5.00 | 6.40 | 7.10 | 6.10 | 5.80 | 6.50 | 5.70 | 6.10 | 6.30 | 6.20 | 5.60 |
| Cc1c(Nc2cc(C3CC3)n[nH]2)ccc(C#N)c1Cl | 39.8 µM | 4.70 | 4.60 | 6.40 | 4.80 | 4.70 | 6.20 | 4.60 | 4.40 | 5.00 | 4.60 | 5.60 |
| Cc1cc(Oc2cc(Cl)c(Cl)cc2Cl)n2ncnc2n1 | 31.6 µM | < 4.00 | 5.00 | 6.10 | 5.00 | 4.80 | 6.40 | 4.60 | 4.80 | 5.10 | 4.90 | 5.30 |
| O=C(CCc1ccc(-c2ccccc2)o1)N1CCN(c2ccc(O)cc2)CC1 | > 100 µM | 5.60 | < 4.30 | 4.60 | 6.10 | 5.00 | 4.40 | 5.90 | 5.40 | < 4.30 | 5.90 | 5.50 |
